How the values were obtained:
serotonin (5-HT) uptake = target: T1, serotonin (5-HT) uptake (Rattus norvegicus, UniProt P31652); test: Serotonin (5-HT) uptake inhibitory activity in rat brain synaptosome; assay type: biochemical; details: rat frontal cortex synaptosome, tritium-labeled 5-HT 8 nM; read-out: IC50 (nM), serotonin (5-HT) uptake inhibition
T1 construct: used as crude synaptosomal fraction; from tissue; host or cells: rat frontal cortex, crude synaptosomal fraction
Method: (§1) Male Wistar rats were decapitated, each brain was removed, and the frontal cortex was cut out. […] The homogenate was centrifuged at 1000 g at 4° C. for 10 minutes, and the supernatant was further centrifuged at 20000 g at 4° C. for 20 minutes. The pellet was suspended in an incubation buffer (20 mM Hepes buffer (pH 7.4) containing 10 mM glucose, 145 mM sodium chloride, 4.5 mM potassium chloride, 1.2 mM magnesium chloride and 1.5 mM calcium chloride) and used as crude synaptosomal fraction.
(§2) Each well of a 96-well round-bottom plate was used for the uptake reaction in a total volume of 200 μL solution containing purgurin (final concentration 10 μM) and ascorbic acid (final concentration 0.2 mg/mL). In other words, solvent, unlabeled 5-HT or step-diluted test compound was added to each well, and one-tenth of the final volume of the synaptosomal fraction was added to each well, followed by pre-incubation at 37° C. for 10 minutes, and then tritium-labeled 5-HT solution (final concentration 8 nM) was added and the uptake reaction was initiated at 37° C. After 10 minutes, the uptake reaction was terminated by suction filtration onto a 96-well glass fiber filter plate. The filters were rinsed with cold physi-ological saline solution, dried thoroughly, and micro scintillation 0 (Perkin-Elmer) was added thereto. Then, the residual radioactivity on the filters was measured.
The uptake value when only solvent was added was set as 100%, the uptake value when unlabeled 5-HT (final concentration 10 μM) was added as 0% (nonspecific uptake value), and the 50% inhibitory concentration was calculated from the concentration of the test compound and its inhibitory activity.

dopamine (DA) uptake = target: T2, dopamine (DA) uptake (Rattus norvegicus, UniProt P23977); test: Dopamine (DA) uptake inhibitory activity using rat brain synaptosome; assay type: biochemical; details: rat striatum synaptosome, tritium-labeled DA 2 nM; read-out: IC50 (nM), dopamine (DA) uptake inhibition
T2 construct: used as crude synaptosomal fraction; from tissue; host or cells: rat striatum, crude synaptosomal fraction
T2 sequence (P23977 whole entry): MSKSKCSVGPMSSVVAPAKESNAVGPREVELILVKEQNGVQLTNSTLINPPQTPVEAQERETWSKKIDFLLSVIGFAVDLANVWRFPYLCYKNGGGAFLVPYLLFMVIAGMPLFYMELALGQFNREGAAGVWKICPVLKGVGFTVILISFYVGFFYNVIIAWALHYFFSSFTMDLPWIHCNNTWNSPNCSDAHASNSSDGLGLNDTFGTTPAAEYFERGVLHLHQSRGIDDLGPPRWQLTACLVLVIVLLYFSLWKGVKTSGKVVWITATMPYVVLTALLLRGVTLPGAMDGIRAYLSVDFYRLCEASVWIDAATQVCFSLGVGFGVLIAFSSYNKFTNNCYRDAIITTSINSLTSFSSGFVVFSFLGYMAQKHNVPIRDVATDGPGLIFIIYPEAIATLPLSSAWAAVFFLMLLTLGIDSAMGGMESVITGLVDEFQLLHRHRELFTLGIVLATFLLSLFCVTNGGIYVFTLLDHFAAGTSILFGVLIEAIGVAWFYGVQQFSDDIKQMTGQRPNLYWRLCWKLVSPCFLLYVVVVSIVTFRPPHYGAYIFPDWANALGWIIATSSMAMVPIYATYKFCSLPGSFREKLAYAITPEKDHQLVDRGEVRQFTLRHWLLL
Method: as §1, with “striatum” for “frontal cortex”
as §2, with “μl” for “μL”, “DA” for “5-HT”, “2” for “8”
The uptake value when only solvent was added was set as 100%, the uptake value when unlabeled DA (final concentration 10 μM) was added as 0% (nonspecific uptake value), and the 50% inhibitory concentration was calculated from the concentration of the test compound and its inhibitory activity.

CYP2C9 = target: T3, CYP2C9 (Homo sapiens, UniProt P11712); test: CYP inhibition test (1): inhibition rate (%) at one concentration, CYP2C9; assay type: in vitro ADME; details: human liver microsomes, pH 7.4, probe diclofenac (0.005 mmol/L); test compound 0.01 mmol/L, human liver microsome 0.1 mg/mL, substrate diclofenac, 37° C. 10 minutes; read-out: inhibition rate (%) 2C9
T3 construct: a human liver microsome solution containing three CYP-specific substrates; from tissue; host or cells: human liver microsomes
T3 sequence (P11712 whole entry): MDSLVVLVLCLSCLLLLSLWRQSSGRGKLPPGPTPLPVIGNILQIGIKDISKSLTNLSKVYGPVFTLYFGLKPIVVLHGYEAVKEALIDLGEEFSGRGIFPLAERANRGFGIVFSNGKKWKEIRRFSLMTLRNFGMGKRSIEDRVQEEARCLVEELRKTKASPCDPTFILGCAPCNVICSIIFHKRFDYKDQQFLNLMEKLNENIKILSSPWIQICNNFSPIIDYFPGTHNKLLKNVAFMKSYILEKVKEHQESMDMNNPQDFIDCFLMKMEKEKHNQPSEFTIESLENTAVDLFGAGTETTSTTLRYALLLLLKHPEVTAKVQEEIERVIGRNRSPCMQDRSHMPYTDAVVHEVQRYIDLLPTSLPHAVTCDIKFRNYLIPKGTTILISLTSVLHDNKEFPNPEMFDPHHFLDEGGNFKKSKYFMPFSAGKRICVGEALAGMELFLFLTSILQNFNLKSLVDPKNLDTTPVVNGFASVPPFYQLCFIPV
Method: (§3) A metabolic reaction was initiated by adding and mixing a test compound solution (final concentration 0.01 mmol/L) and a NADH/NADPH solution (final concentration 1 mmol/L) to a human liver microsome solution containing three CYP-specific substrates (final concentration 100 mmol/L potassium phosphate buffer solution (pH 7.4), 5 mmol/L magnesium chloride, 0.1 mg/mL human liver microsome, 0.005 mmol/L diclofenac (for CYP2C9), 0.01 mmol/L bufuralol (for […]), 0.005 mmol/L midazolam (for CYP3A4)). As an internal standard solution, a solution of each of stable isotopes of the metabolites (50 ng/mL [13C6] hydroxy diclofenac, 5 ng/mL [2H9] hydroxy bufuralol, and 5 ng/mL [13C6] hydroxy midazolam (all stable isotopes)) in methanol was prepared and used as a quenching solution.
(§4) Specifically, a metabolic reaction was initiated by adding and mixing 2 μL of a solution of a test compound in acetonitrile (or acetonitrile as a control) to 178 μL of a human liver microsome solution in ice water, followed by preincubation at 37° C. for 1 minute, and then adding 20 μL of a NADH/NADPH solution thereto. After incubation at 37° C. for 10 minutes, 50 μL of the reaction mixture was taken, and then it was added and mixed to 500 μL of a quenching solution to quech the reaction. The mixture was centrifuged (6130 g, 4° C., 10 minutes) and the supernatant was used as a sample for LC-MS/MS.
(§5) Peak area ratio ([peak area of metabolite]/[peak area of corresponding stable isotope]) was calculated for a metabolite and a stable isotope of the metabolite as measurement object. By comparing the peak area ratio of each test compound solution with that of the control, the inhibition rate (%) of each CYP species for each test compound was calculated from (1-[peak area ratio of each test compound solution]/[peak area ratio of control])×100.

CYP3A4 = target: T4, CYP3A4 (Homo sapiens, UniProt P08684); test: CYP inhibition test (1): inhibition rate (%) at one concentration, CYP3A4; assay type: in vitro ADME; details: human liver microsomes, pH 7.4, probe midazolam (0.005 mmol/L); test compound 0.01 mmol/L, human liver microsome 0.1 mg/mL, substrate midazolam, 37° C. 10 minutes; read-out: inhibition rate (%) 3A4
T4 construct: a human liver microsome solution containing three CYP-specific substrates; from tissue; host or cells: human liver microsomes
T4 sequence (P08684 whole entry): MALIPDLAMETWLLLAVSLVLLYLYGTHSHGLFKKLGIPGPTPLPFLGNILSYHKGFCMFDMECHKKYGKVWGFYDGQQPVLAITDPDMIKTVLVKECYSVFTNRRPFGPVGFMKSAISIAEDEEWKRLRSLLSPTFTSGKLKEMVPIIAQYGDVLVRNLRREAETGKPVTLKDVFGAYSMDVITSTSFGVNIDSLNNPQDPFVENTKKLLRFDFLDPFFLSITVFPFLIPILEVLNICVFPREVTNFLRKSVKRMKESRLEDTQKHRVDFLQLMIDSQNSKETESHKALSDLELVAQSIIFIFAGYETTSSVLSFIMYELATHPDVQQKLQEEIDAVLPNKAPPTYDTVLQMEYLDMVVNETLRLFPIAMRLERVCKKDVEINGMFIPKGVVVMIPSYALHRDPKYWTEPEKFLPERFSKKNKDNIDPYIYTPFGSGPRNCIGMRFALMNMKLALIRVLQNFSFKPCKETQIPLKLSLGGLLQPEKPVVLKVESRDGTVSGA
Method: as §3, §4, §5

T1 sequence (P31652 whole entry): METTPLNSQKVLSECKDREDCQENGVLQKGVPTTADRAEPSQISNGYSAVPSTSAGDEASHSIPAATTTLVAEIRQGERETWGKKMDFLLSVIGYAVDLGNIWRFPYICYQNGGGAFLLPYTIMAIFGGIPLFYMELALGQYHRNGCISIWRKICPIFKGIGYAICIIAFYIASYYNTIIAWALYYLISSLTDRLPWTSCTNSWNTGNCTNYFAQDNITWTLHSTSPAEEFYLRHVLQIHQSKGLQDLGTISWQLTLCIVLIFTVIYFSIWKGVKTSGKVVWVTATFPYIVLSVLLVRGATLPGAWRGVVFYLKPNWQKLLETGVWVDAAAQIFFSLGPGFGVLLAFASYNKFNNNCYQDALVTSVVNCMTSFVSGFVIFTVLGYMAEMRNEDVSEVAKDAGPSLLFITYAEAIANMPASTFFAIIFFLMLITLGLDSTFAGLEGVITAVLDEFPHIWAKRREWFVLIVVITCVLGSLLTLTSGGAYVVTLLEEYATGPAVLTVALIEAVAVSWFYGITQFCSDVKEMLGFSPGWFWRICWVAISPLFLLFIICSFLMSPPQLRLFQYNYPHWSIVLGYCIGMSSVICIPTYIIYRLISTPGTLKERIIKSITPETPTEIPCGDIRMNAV

| IC50 (serotonin (5-HT) uptake) | IC50 (dopamine (DA) uptake) | inhibition at 10 min, 0.01 mmol/L (CYP2C9) | inhibition at 10 min, 0.01 mmol/L (CYP3A4) | Structure (SMILES) |
| --- | --- | --- | --- | --- |
| 55 nM | 74.4 nM | 9.2% | 0.1% | CC1(C)CN(c2ccc(OCCO)c(F)c2)[C@H]2CCCC[C@H]2N1 [Example 52] |
| 8.9 nM | 73.2 nM | – | – | CC1(C)CN(c2cc(F)c(OCCO)c(F)c2)[C@H]2CCCC[C@@H]2N1 [Example 34, 2-(4-((4aS,8aS)-3,3-dimethyloctahydroquinoxalin-1(2H)-yl)-2,6-difluorophenoxy)ethan-1-ol] |
| 60.1 nM | 25.6 nM | – | – | CC1(C)CN(c2cc(F)c(OCCO)c(F)c2)[C@H]2CCCC[C@H]2N1 [Example 36] |
| 55.4 nM | 241 nM | 1.7% | -2.4% | CC1(C)CN(c2cc(F)c(OCCO)cc2F)[C@H]2CCCC[C@H]2N1 [Example 72] |
| 30.3 nM | 88 nM | 9.3% | 8.6% | Cc1c(N2CC(C)(C)N[C@@H]3CCCC[C@@H]32)ccc(OC(F)(F)CO)c1F [Example 57] |
| 5.1 nM | 85.1 nM | 1.1% | 6.1% | CC1(C)CN(c2ccc(OCCO)c(Br)c2F)[C@H]2CCCC[C@H]2N1 [Example 63] |
| 71 nM | 59.7 nM | – | – | CC1(C)CN(c2cc(F)c(OCCO)c(F)c2)[C@@H]2CCCC[C@H]2N1 [Example 35] |
| 42.3 nM | 205 nM | 7.9% | -1.9% | CC1(C)CN(c2cc(F)c(OC(F)(F)CO)cc2F)[C@H]2CCCC[C@@H]2N1 [Example 77] |
| 87.4 nM | 81.9 nM | – | – | CN1[C@H]2CCCC[C@@H]2N(c2ccc(OC(F)(F)CO)cc2)CC1(C)C [Example 37, 2,2-difluoro-2-(4-((4aS,8aS)-3,3,4-trimethyloctahydroquinoxalin-1(2H)-yl)phenoxy)ethan-1-ol] |
| 8.7 nM | 68.7 nM | 4.8% | 5.9% | CC1(C)CN(c2ccc(OC(F)(F)CO)c(F)c2F)[C@H]2CCCC[C@H]2N1 [Example 73] |
| 8.6 nM | 273 nM | 4.6% | -1.6% | CC1(C)CN(c2cc(Br)c(OCCO)cc2F)[C@H]2CCCC[C@H]2N1 [Example 62] |
| 57 nM | 81.4 nM | 0.6% | -3.4% | CC1(C)CN(c2cc(F)c(OC(F)(F)CO)cc2F)[C@H]2CCCC[C@H]2N1 [Example 71] |
| 98.3 nM | 60.7 nM | – | – | Cc1cc(N2CC(C)(C)N[C@@H]3CCCC[C@H]32)ccc1OC(F)(F)CO [Example 32] |
| 57.4 nM | 68.6 nM | -0.7% | -9.2% | Cc1cc(N2CC(C)(C)N[C@@H]3CCCC[C@@H]32)ccc1OC(F)(F)CO [Example 48] |
| 37.3 nM | 224 nM | 8.9% | 17.1% | Cc1c(OC(F)(F)CO)ccc(N2CC(C)(C)N[C@H]3CCCC[C@@H]32)c1F [Example 79] |
| 17 nM | 41.1 nM | -8.3% | 1.1% | CC1(C)CN(c2ccc(OCCO)c3occc23)[C@H]2CCCC[C@H]2N1 [Example 51] |
| 7.7 nM | 214 nM | -7.6% | 2% | CC1(C)CN(c2ccc(OCCO)c3occc23)[C@@H]2CCCC[C@@H]2N1 [Example 50] |

Second part, the molecule before the results:

| Structure (SMILES) | IC50 (serotonin (5-HT) uptake) | IC50 (dopamine (DA) uptake) | inhibition at 10 min, 0.01 mmol/L (CYP2C9) | inhibition at 10 min, 0.01 mmol/L (CYP3A4) |
| --- | --- | --- | --- | --- |
| C[C@@H]1CN(c2cc(F)c(OCCO)c(Cl)c2)[C@H]2CCCC[C@@H]2N1 [Example 17, 2-(2-chloro-6-fluoro-4-((3R,4aS,8aS)-3-methyloctahydroquinoxalin-1(2H)-yl)phenoxy)ethan-1-ol 1/2fumarate] | 7.3 nM | 7.6 nM | – | – |
| C[C@@H]1CN(c2ccc(OC(F)(F)CO)c(Cl)c2)[C@H]2CCCC[C@@H]2N1 [Example 19] | 62.7 nM | 47.4 nM | 5.8% | 16.1% |
| COc1cc(N2CC(C)(C)N[C@H]3CCCC[C@@H]32)ccc1OC(F)(F)CO [Example 26] | 18.1 nM | 213 nM | – | – |
| OCCOc1c(F)cc(N2CC3(CCC3)N[C@H]3CCCC[C@@H]32)cc1Cl [Example 6] | 6.1 nM | 5.8 nM | -6.4% | 23.3% |
| CC1(C)CN(c2ccc(OCCO)c(Cl)c2)[C@@H]2CCCC[C@H]2N1 [Example 28] | 55.1 nM | 76.5 nM | – | – |
| Cc1cc(N2CC(C)(C)N[C@H]3CCCC[C@@H]32)ccc1OC(F)(F)CO [Example 31] | 26.6 nM | 56.4 nM | – | – |
| Cc1cc(N2CC3(CCC3)N[C@H]3CCCC[C@@H]32)cc(F)c1OCCO [Example 14] | 5.8 nM | 5.5 nM | 13.6% | 14.4% |
| COc1cc(N2CC3(CCC3)N[C@H]3CCCC[C@@H]32)ccc1OCCO [Example 11] | 39.6 nM | 97.9 nM | 7.5% | -1.3% |
| C[C@H]1CN(c2cc(F)c(OCCO)c(Cl)c2)[C@H]2CCCC[C@H]2N1 [Example 18] | 73.1 nM | 42.9 nM | – | – |
| CC1(C)CN(c2ccc(OC(F)(F)CO)cc2)[C@H]2CCCC[C@@H]2N1 [Example 20, 2-(4-((4aS,8aS)-3,3-dimethyloctahydroquinoxalin-1(2H)-yl)phenoxy)-2,2-difluoroethan-1-ol] | 4.7 nM | 90.9 nM | – | – |
| CC1(C)CN(c2ccc(OC(F)(F)CO)cc2)[C@@H]2CCCC[C@H]2N1 [Example 21] | 89.9 nM | 199 nM | – | – |
| CC1(C)CN(c2ccc(OCCO)c(Cl)c2)[C@H]2CCCC[C@@H]2N1 [Example 27, 2-(2-chloro-4-((4aS,8aS)-3,3-dimethyloctahydroquinoxalin-1(2H)-yl)phenoxy)ethan-1-ol] | 7.6 nM | 99 nM | – | – |

— patent US20240409519A1, “HYDROGENATED QUINOXALINES” (OTSUKA PHARMACEUTICAL CO., LTD., priority 2021, published 2024)
